From PMC9202147, “In vitro anti-HIV and cytotoxic effects of pure compounds isolated from Croton macrostachyus Hochst. Ex Delile” (BMC Complementary Medicine and Therapies, 2022)
In brackets after ≈: the same amount, converted by molar mass. Read-outs that look alike come from different tables or passages of the source.

Tests used:
[1] = tested on: HIV-1IIIB virus; experiment: Anti-HIV activity: inhibition of HIV-1-induced cytopathic effect in MT-4 cells, MTT colorimetric assay; format: cell-based; conditions: for Emax: read-out: EmaxAV (maximum antiviral effect %, inhibition of virus-induced CPE); for SI (selective index): ratio of CC50 to EC50, MT-4 cells
Experimental: The effects of the test compounds in preventing cytopathic effects that occur because of HIV-1 replication were evaluated by MTT colorimetric assay. MT-4 cells suspended at 1 X 10^8 cells/ml were infected with 640 μL of HIV-1IIIB virus at 1.26 X10^8 TCID50/ml. After infection, 200 μl HIV-infected MT-4 cells (1 X10^5 cells/well) in growth media were added to each well. The plates were preincubated for 24 h at 37 °C to allow stabilization. Then, 50 μL of the test compounds (at a concentration of 4 mg/ml) were added to the first column of the well. With a multichannel pipette, 50 μL was transferred (in triplicate) from the wells labeled 1 to wells labeled 2. Such transfers were continued (serial dilution), moving from left to right, changing tips prior to mixing contents of the next column of wells. Finally, 50 μL was discarded from the wells in column 12. Different concentrations ([…]) of test compounds were prepared through serial dilution. Each dilution was tested in triplicates. The microtiter plates were incubated at 37 °C in a 5% CO2 incubator for 5 days. […] After 5 days of incubation, cell viability was determined by the MTT assay described. All compounds were assayed in triplicate.

[2] = in vitro; conditions: human, MT-4 cells
Experimental: (§1) A cytotoxicity test was conducted to evaluate the safety of the plant extracts by measuring cell death caused by the plant extracts. The assay was conducted using an MTT colorimetric assay. The MTT assay was based on the reduction of the yellow-colored tetrazolium salt MTT 3-(4,5-dimethylthiazol-2-yl)-2,5-diphenyltetrazolium bromide) by NAD(P)H-dependent cellular oxidoreductase enzymes to an insoluble dark-blue colored formazan that can be measured spectrophotometrically. Formazan production indicates the number of viable cells; therefore, an increase or decrease in cellular viability results in a change in the amount of formazan formed, which indicates the degree of cellular cytotoxicity (CC50) caused by the plant extract. MTT (3-(4,5-dimethylthiazol-2-yl)-2,5-diphenyl tetrazolium bromide) was dissolved in PBS to obtain a final concentration of 5 mg/ml and filtered to sterilize and remove insoluble residue. The assay was carried out in 96-well, flat-bottomed microtiter plates. To each well, 200 μl of MT-4 cells (1 × 10^5 cells) in growth media was added. The plates were preincubated for 24 h at 37 °C to allow stabilization. Then, 50 μL of the test compounds (at a concentration of 4 mg/ml) were added to the first column of the well. With a multichannel pipette, 50 μL was transferred (in triplicate) from the wells labeled 1 to wells labeled 2, and such transfers were continued (serial dilution), moving from left to right, changing tips prior to mixing contents of the next column of wells. Finally, 50 μL was discarded from the wells in column 12. […] Each dilution was tested in triplicates. The negative control (NC) wells contained 50 μl of MT-4 cells in 0.5% DMSO [52]. […] A 96-well microtiter plate containing the test compounds and positive and negative controls was incubated at 37 °C in a humidified atmosphere of 5% CO2 for 5 days. After incubation, 20 μl of MTT reagent (5 mg/ml MTT in phosphate-buffered saline) was added to each test well and control well. The plate was further incubated at 37 °C in a CO2 incubator for 4 hours. After 4 hours of incubation, 100 μl of DMSO was added to dissolve the dark-blue formazan crystals from surviving cells. After the formazan crystals were dissolved completely, the resulting optical density (OD) readings were measured relative to the controls on an ELISA plate reader at 570 nm with a reference wavelength of 620 nm. For each extract and pure compound tested, 3 triplicate determinations were performed. […] The concentration that determined cell viability above 80% (CC20) was chosen as the maximum non-toxic concentration (MNTC).

[3] = tested on: MT-4 cells; experiment: in vitro; conditions: 5 days, MTT, mean ± S.E.M (n = 3); for MNTC (maximum nontoxic concentration): concentration with cell viability above 80% (CC20)
Experimental: as §1

[4] = tested on: HIV; design: method as in ref 61 (Chaniad et al); conditions: ref 61 (Chaniad et al); read-out: IC50 against HIV; cited from earlier work
[5] = biological target: HIV-1 RT-associated RNase H function; design: method as in ref 62 (Esposito et al); conditions: ref 62 (Esposito et al); cited from earlier work
[6] = Human immunodeficiency virus 1, MT4, 120 h, HIV-1IIIB-infected MT-4 cells, 5 days, MTT, mean ± S.E.M (n = 3)
[7] = Human immunodeficiency virus 1, MT4, 120 h, read-out: IC50 (50% antiviral effect concentration), HIV-1IIIB-infected MT-4 cells, 5 days, MTT, mean ± S.E.M (n = 3)
[8] = CC50 (50% cytotoxic concentration), 5 days, MTT, mean ± S.E.M (n = 3)
[9] = HIV-1IIIB-infected MT-4 cells, 5 days, MTT, mean ± S.E.M (n = 3)
[10] = Human immunodeficiency virus 1, MT4, 120 h, read-out: IC50 (50% antiviral effect concentration)

Structure (SMILES) | Emax [1, 6] [%] | IC50 [1, 7] [µg/mL] | IC50 ([1]; Human immunodeficiency virus 1, MT4, as stated in abstract/conclusions, read-out: anti-HIV-1 inhibition IC50) [nM] | SI (selective index) [1] | CC50 at 5 days [2, 8] [µg/mL] | MNTC (maximum nontoxic concentration) [3] [µg/mL] | CC50 (50% cytotoxic concentration) [3] [µg/mL] | EmaxC (maximum cytotoxic effect %) [3] [%] | EmaxAV (maximum antiviral effect %, inhibition of virus-induced CPE) [1, 9] [%] | Emax ([1]; Human immunodeficiency virus 1, MT4, 120 h) [%] | IC50 [1, 10] [µg/mL] | CC50 at 5 days [2] [µg/mL] | IC50 ([1]; Human immunodeficiency virus 1, MT4, read-out: anti-HIV-1 inhibition IC50) [nM] | IC50 ([1]; Human immunodeficiency virus 1, MT4, as stated in abstract, read-out: anti-HIV-1 inhibition IC50) [µg/mL] | IC50 [4] [nM] | IC50, HIV-1 RT-associated RNase H function [5] [nM]
C=C(C)[C@@H]1CC[C@]2(C)CC[C@]3(C)[C@H](CC[C@@H]4[C@@]5(C)CCC(=O)C(C)(C)[C@@H]5CC[C@]43C)[C@@H]12 [Compound 2, lupenone] | 64.74 ± 0.52 | 0.002 ± 0.001 | 4.7 | 14,084.0 | 32.5 ± 0.7 (≈ 76.4 µM) | 14.17 ± 0.94 | 28.83 ± 0.54 (≈ 67.9 µM) | 38.53 ± 0.69 |  |  |  |  |  |  |  | 
Cc1cn([C@H]2C[C@H](N=[N+]=[N-])[C@@H](CO)O2)c(=O)[nH]c1=O [AZT, Zidovudine, reference compound] |  |  |  |  |  |  |  |  | 83.5 ± 0.57 |  |  |  |  |  |  | 
CC[C@H](/C=C/[C@@H](C)[C@H]1CC[C@H]2[C@@H]3CC=C4C[C@@H](O)CC[C@]4(C)[C@H]3CC[C@]12C)C(C)C [Compound 7, stigmasterol] |  |  |  | 86.5 | 12.4 ± 10.9 (≈ 30 µM) | 4.70 ± 3.43 |  | 43.71 ± 2.02 |  | 76.8 ± 23.2 | 0.14 ± 0.04 |  |  |  |  | 
Cc1ccnc2c1NC(=O)c1cccnc1N2C1CC1 [NVP, Nevirapine, reference compound] |  | 0.24 ± 0.09 |  | 3.5 |  | 0.57 ± 0.0 | 0.82 ± 0.0 (≈ 3.08 µM) | 39.13 ± 0.65 | 72.53 ± 0.47 |  |  |  |  |  |  | 
Nc1nc(NC2CC2)c2ncn([C@H]3C=C[C@@H](CO)C3)c2n1 [ABC, Abacavir, reference compound] |  | 0.05 ± 0.031 |  | 5.0 |  | 0.18 ± 0.03 | 0.26 ± 0.00 (≈ 0.908 µM) | 17.83 ± 0.57 | 58.67 ± 0.43 |  |  |  |  |  |  | 
C[C@H](Cn1cnc2c(N)ncnc21)OCP(=O)(O)O [TDF, Tenofovir, reference compound] |  |  |  |  |  | 4.92 ± 0.71 | 6.73 ± 0.24 (≈ 23.4 µM) | 13.17 ± 0.43 | 80.55 ± 0.46 |  | 0.04 ± 0.01 |  |  |  |  | 
COc1ccccc1COC(=O)c1ccccc1 [Compound 1, 2-methoxy benzyl benzoate] | 53.2 ± 3.35 | 0.25 ± 0.02 |  | 0.0073 |  |  |  | 39.1 ± 2.22 |  |  |  | 0.001 (≈ 0.00413 µM) |  |  |  | 
C=C(C)[C@@H]1CC[C@]2(CO)CC[C@]3(C)[C@H](CC[C@@H]4[C@@]5(C)CC[C@H](O)C(C)(C)[C@@H]5CC[C@]43C)[C@@H]12 [Compound 4, betulin] | 76 | 0.002 ± 0.04 |  | 15,551.2 | 31.7 ± 0.55 (≈ 71.7 µM) | 16.54 ± 0.35 |  | 55.13 ± 0.15 |  |  |  |  | 4.5 | 4.5 | 17700 ± 600 | 
C=C(C)[C@@H]1CC[C@]2(C)CC[C@]3(C)[C@H](CC[C@@H]4[C@@]5(C)CC[C@H](O)C(C)(C)[C@@H]5CC[C@]43C)[C@@H]12 [Compound 5, lupeol] | 77.01 ± 0.38 | 0.047 ± 0.02 |  | 3048.2 | 141.8 ± 0.7 (≈ 332 µM) | 75.75 ± 0.74 |  | 70.28 ± 0.75 |  |  |  |  |  |  |  | 11600
